Read-outs that look alike come from different tables or passages of the source.

The source of these data is patent US20120015939A1, “TOPICAL TREATMENT OF NEUROPATHIC PAIN AND METHODS OF DIAGNOSIS” (Arcion Therapeutics, Inc., priority 2010, published 2012).

The subject of data set [1] is pain associated with painful diabetic neuropathy (PDN).
Experimental: Pain was assessed each day using a pain diary using a standardized numerical pain rating scale (NPRS). The average pain for each week was calculated and the difference from baseline was determined (week x minus baseline). […] The baseline pain scores were imputed for missing data arising from premature withdrawal from the study (BOCF, baseline observation carried forward).
Capsaicin 0.1% was applied to the pretibial area between the knee and ankle in each patient. The area was occluded for 30 minutes, at which time patients rated the painfulness of the capsaicin stimulus. It was reasoned that in patients with PDN that the afferented group would detect and rate the capsaicin stimulus as painful, while the deafferented group would fail to detect the stimulus.
Data set [2] has as its system painful diabetic neuropathy. To be noted: systemic clonidine by transdermal patches; cross-over; cited from earlier work.
For data set [3] the following is noted: in vivo; cited from earlier work.
For data set [4] the following is noted: topical 0.1% and 0.2% clonidine. Here is the method:
The dosage formulation is administered from once a day to several times a day, depending on the patient. […] The dose is determined by the region of pain. […] The area treated is constrained by the systemic dosing.

The nature of the next data set: clinical. To be noted: human, in vivo. The text has this:
In study CLO-027, blood samples for PK analysis were obtained at baseline, and at Weeks 2 and 12 of treatment.

Data set [5] deals with painful diabetic neuropathy. The note with it: cited from earlier work.

`Clc1cccc(Cl)c1N=C1NCCN1` [clonidine]: the “Efficacy over placebo in relieving diabetic pain (change in NPRS over time)” value (shortened to “Efficacy … (change in NPRS over time)”) in data set [1] (capsaicin pain rating of two or more, 0 to 10 scale (FIG. 4C)) was “significantly superior to placebo”. Moreover, the “Efficacy … (change in NPRS over time)” value in data set [1] (patients who did not detect the capsaicin stimulus (FIG. 4A)) is on record as “no efficacy over placebo”. The “Efficacy … (change in NPRS over time)” value in data set [1] (subjects who detected capsaicin, pain rating > 0 (FIG. 4B)) was “significantly superior to placebo”. Also, in data set [2], the “Difference in pain between clonidine patches and placebo patches” value is given as “no statistically significant difference”. Further, the “Lower threshold blood level considered necessary to treat hypertension” value in data set [3] is 0.200 ng/mL. Besides, in data set [4], the Mean blood level entry is “below 0.1 ng/mg” and the “Patients with no detectable clonidine in the blood” value is on record as “one third of patients had no detectable clonidine in the blood”. Further, in the data set “clinical”, the concentration at 2 weeks came out at 0.017 ng/mL and the concentration at 12 weeks amounted to 0.019 ng/mL. In addition, the “Pain reduction relative to placebo” value in data set [5] (responders rechallenged at highest patch dosage, p<0.015) is “modest although statistically significant”. In data set [5] (twelve of forty-one patients who completed the initial course of treatment), the “Patients considered clonidine responders” value is given as 29%.
